The values below come from patent US6331555A, “Treatment of platelet derived growth factor related disorders such as cancers” (priority 1999, dated 2001).

One may read the % Inhibition as the percentage by which the read-out fell short of the control. Read a high % Inhibition as a response far below the control.

Data set [1] deals with EGF receptor. The data set is described as follows: EGF receptor autophosphorylation, T98G glioblastoma cells. The note with it: 200, 500; 50 ng/ml EGF. Format: cell-based, human. The method, then: Proteins were then separated by SDS-polyacrylamide gel electrophoresis (PAGE). Proteins containing phosphorylated tyrosine were identified by western blotting with an anti-phosphotyrosine antibody. The level of phosphorylated tyrosine was determined by quantitating the amount of bound anti-phosphotyrosine. Quantitation was carried out by peak area integration using a Molecular Dynamics Computing Densitometer (Model 300S), and Image Quant v3.0 software (Molecule Dynamics). Data were expressed as relative peak.intensity (phosphorylation of a receptor divided by the total amount of phosphorylated tyrosine).
T98G cells were plated in MCDB105 medium containing 2% FBS and incubated for 24 hours at 37° C. […] The cells were then treated with ligand for 10 minutes (20 ng/ml PDGF-BB or 50 ng/ml EGF). The cells were lysed and the level of phosphorylated receptor was quantitated as described in Example 1.

The test system of data set [2] is MCF7 mammary tumor. The experiment in a line: SC xenograft in mice. Format: in vivo, human. The method, then: (§1) Cell lines were grown in appropriate medium (see Appendix 1). Cells were harvested at or near confluency with 0.05% Trypsin-EDTA and pelleted at 450×g for 10 min. Pellets were resuspended in sterile PBS or media (without FBS) to a particular concentration and the cells were implanted into the hindflank of mice. Tumor growth was measured over 3 to 6 weeks using venier calipers. Tumor volumes were calculated as a product of length×width×height unless otherwise indicated. P values were calculated using the Students' t-test.
For orientation: Xenograft models place foreign cells or tissue in a host animal.

The subject of data set [3] is SF763T glioma. The experiment in a line: SC xenograft in mice. It is filed as in vivo, human. The method, then: as §1
Data set [4] has as its system U87MG cells. The experiment in a line: Intracerebral U87MG tumor, athymic mice, survival. It is filed as in vivo, human. To be noted: IC U87MG; control 60 days; P=0.15.
Data set [5] concerns spleen cells. The data set is described as follows: Normal immune function in mice bearing a primary tumor. To be noted: 20 mg/kg/day. Format: in vivo, mouse. From the text:
At the indicated times, animals were sacrificed, and the spleens were aseptically removed and placed into sterile medium. Spleens were processed into single cell suspensions by grinding between sterile frosted glass microscope slides. After a single wash to remove tissue debris, the spleen cells were resuspended in a hypotonic ammonium chloride buffer to lyse erythrocytes. Lymphocytes were washed and resuspended to the appropriate concentrations in complete medium, consisting of RPMI plus 10% heat-inactivated FBS, 2 mM glutamine, 50 μM β-mercaptoethanol, and penicillin-streptomycin. The responses of the lymphocytes were examined in the following assays according to accepted procedures (Current Protocols in Immunology. Coligan, J. E., Kruisbeek, A. M., Margulies, D. H., Shevach, E. M., Strober, W. (eds.) John Wiley and Sons, Inc., 1992).
The T-cell mitogen, ConA, and the T-cell independent B-cell mitogen, LPS, were added to 96-well round-bottom wells at the indicated concentrations. Lymphocytes from normal, vehicle-dosed, and drug-dosed animals were added at a final concentration of 2.5×10^5 /well. Cultures were usually set up in triplicate or quadruplicate. The plates were incubated at 37° C. in a humidified atmosphere containing 5% CO2 for the indicated times. Supernatants (approximately 100 μL) were carefully removed from the wells and stored at -80° C. for lymphokine and immunoglobulin analyses. To measure proliferation of the lymphocytes, 1 μCi of ^3 H-thymidine was added to each well, and the plates were incubated for 6 hr. The cultures were harvested onto glass fiber filters, and the incorporated radioactivity was quantitated by liquid scintillation counting (Betaplate, Wallac).
Lymphocytes from normal, vehicle-dosed, and drug-dosed animals were plated at 2.5×10^5 /well in round-bottom 96-well plates. Stimulator cells were then added at the same cell concentration. The stimulator cells consisted of syngeneic or allogeneic lymphocytes which had been treated with 50 μg/mL of mitomycin C for 30 min prior to the assay. The plates were incubated for 3 to 4 days, at which time supernatants were harvested and the cultures were pulsed as described for the mitogen assays.
Supernatants from mitogen and MLR cultures were assayed for IL-2 and IL-6 content by the ability to support the growth of factor-dependent cell lines. HT-2 cells (10^4 /well, IL-2-dependent) and 7TD1 cells (2×10^3 /well, IL-6-dependent) were plated in 96-well flat-bottom plates, in 50 μL/well. Supernatants were added in 50 μL/well, and the plates were incubated overnight (HT-2) or four days (7TD1). Cellular proliferation was determined in the MTT colorimetric assay (Appendix 3.1).
Flat bottom 96-well EIA plates were coated with goat anti-mouse Ig antibodies (Southern Biotechnology) overnight at 4° C. The plates were blocked by the addition of PBS+1% BSA. After washing with PBS, supernatants from murine mitogen and MLR cultures were added and incubated at room temperature for 1 hr. The plates were washed with PBS, then HRP-labeled goat anti-mouse Ig antibodies were added and incubated at room temperature for 1 hr. The plates were washed and developed by the addition of substrate (ABTS).
BALB/c mice received SC implants of syngeneic WEHI-164.13 fibrosarcoma cells on day 0. […] On day 17, the animals were sacrificed and their spleens were removed. The spleen cells were assayed in vitro for responses to alloantigens and mitogens.

Data set [6] in a line: Ex vivo conversion of A10 to B11 in rat plasma. Here is the method:
Plasma was prepared and frozen in liquid nitrogen. Tissues and organs were resected and immediately frozen in liquid nitrogen. After the addition of an internal standard, plasma samples were acidified with HCl and extracted with acetonitrile. The acetonitrile fraction was evaporated to dryness in a vacuum centrifuge with heating and redissolved in methanol. Tissue and organ samples were homogenized according to the weight ratio of 1:5 (w:v) in 50 mM Tris-HCl, pH 7.4, at 20,000 rev/min, using a tissue homogenizer (Brinkmann Polytron Model PT3000). After the addition of an internal standard, the homogenate was acidified with HCl and then extracted with acetonitrile. The acetonitrile fraction was then extracted with an equal volume of diethyl ether. The ether fraction was evaporated to dryness in a vacuum centrifuge with heating and redissolved in methanol.
Samples for HPLC analysis were injected onto a Hewlett Packard Hypersil 5-μm C18 cartridge column (100×4.6 mm). The mobile phase was methanol:35 mM KH2 PO4 (pH 4.5) 55:45 containing 4 mM triethylamine. The flow rate was 1.2 mL/min. The compounds were monitored by UV absorption at 254 nm using a Hewlett-Packard diode-array detector (HP Model 1090). Plasma and tissue concentrations were determined from standard curves using peak area for quantitation. […]

Data set [7] in a line: Ex vivo conversion of A10 to B11 in human plasma.

A value given as a limit tells only on which side of the number the result lay.

Consider `Cc1oncc1C(=O)Nc1ccc(C(F)(F)F)cc1` [Compound A10, 5-methylisoxazole-4 carboxylic acid-(4-trifluromethyl)-anilide], for which the “EGF stimulated autophosphorylation of EGF-R” value in data set [1] was “little if any effect on the ability of EGF to stimulate autophosphorylation of EGF-R”. Further, the “growth of xenograft” value in data set [2] (12 to 20 mg/kg/day) is “failed to significantly inhibit the growth”. For the same molecule, the “% Inhibition” value in data set [2] (SCID, 15 mg/kg/day, day 27, treatment from day 8) was determined as 8%; in data set [3] (20 mg/kg), 89%; in data set [3] (nu/nu, 20 mg/kg/day, day 22), 85%. The “In Vivo inhibition” value in data set [3] (xenografted athymic mice) was 89%. The molecule further showed a mean survival in data set [4] of 65 days. Further, the IL-2 production in data set [5] (Allo), in data set [5] (ConA), in data set [5] (LPS) and in data set [5] (Tumor stimulus) was 0 each time. Besides, the IL-6 production in data set [5] (Allo), in data set [5] (ConA), in data set [5] (LPS) and in data set [5] (Tumor stimulus) was 0 throughout. Moreover, the Ig production in data set [5] (Allo), in data set [5] (ConA), in data set [5] (LPS) and in data set [5] (Tumor stimulus) was 0 throughout. Also, the “time of complete conversion to B11” value in data set [6] (37° C., rat plasma) is ≤ 2 h; in data set [7] (25° C., human plasma), ≤ 21 h. Moreover, the “conversion to B11 in heat-inactivated plasma” value in data set [6] (rat, 15 min at 60° C.) is given as “does not occur”; in data set [7] (human, 15 min at 60° C.), “does not occur”. For the same molecule, the “A10 remaining, co-incubation of B11 and A10” value in data set [7] (fresh human plasma, after 21 hr) is listed as “No A10 was detected after 21 hr”.
